Results: US7342012B2, “Inhibitors of αLβ2 mediated cell adhesion” (Mitsubishi Tanabe Pharma Corporation, priority 1999, dated 2008)

Compared with O=C1N(c2cc(Cl)cc(Cl)c2)C(=O)[C@@]2(Cc3ccc(Br)cc3)C[C@H](O)CN12 [Example 61, (5R,7S)-5-(4-Bromobenzyl)-3-(3,5-dichlorophenyl)-7-hydroxy-1,3-diazabicyclo[3.3.0]octane-2,4-dione], O=C1N(c2cc(Cl)cc(Cl)c2)C(=O)C2(Cc3ccc(Br)cc3)CC(F)(F)CN12 (centres unmarked) [Example 110, 5-(4-Bromobenzyl)-3-(3,5-dichlorophenyl)-7,7-difluoro-1,3-diazabicyclo[3.3.0]octane-2,4-dione] is higher in melting point: 60.4 °C for the first, 160.3 °C for the second.

First: [N-]=[N+]=N[C@@H]1CN2C(=O)N(c3cc(Cl)nc(Cl)c3)C(=O)[C@@]2(Cc2ccc(OC(F)(F)F)cc2)C1 [Example 62, (5R,7S)-5-[4-(Trifluoromethoxy)benzyl]-3-(2,6-dichloro-4-pyridyl)-7-azido-1,3-diazabicyclo[3.3.0]octane-2,4-dione]
Second: N[C@@H]1CN2C(=O)N(c3cc(Cl)nc(Cl)c3)C(=O)[C@@]2(Cc2ccc(OC(F)(F)F)cc2)C1 [Example 63, (5R,7S)-5-[4-(Trifluoromethoxy)benzyl]-3-(2,6-dichloro-4-pyridyl)-7-amino-1,3-diazabicyclo[3.3.0]octane-2,4-dione]
The melting point of the first is lower: 139.9 °C for the first, 150.6 °C for the second.

Going from CC(=O)N[C@@H]1CN2C(=O)N(c3cc(Cl)nc(Cl)c3)C(=O)[C@@]2(Cc2ccc(OC(F)(F)F)cc2)C1 [Example 64, (5R,7S)-5-[4-(Trifluoromethoxy)benzyl]-3-(2,6-dichloro-4-pyridyl)-7-acetamido-1,3-diazabicyclo[3.3.0]octane-2,4-dione] to O=C(O)CCC(=O)N[C@@H]1CN2C(=O)N(c3cc(Cl)nc(Cl)c3)C(=O)[C@@]2(Cc2ccc(OC(F)(F)F)cc2)C1 [Example 66, (5R,7S)-5-[4-(Trifluoromethoxy)benzyl]-3-(2,6-dichloro-4-pyridyl)-7-(3-carboxypropanoylamino)-1,3-diazabicyclo[3.3.0]octane-2,4-dione], the melting point falls from 126.9 °C to 101.9 °C.

First: O=C(N[C@@H]1CN2C(=O)N(c3cc(Cl)nc(Cl)c3)C(=O)[C@@]2(Cc2ccc(OC(F)(F)F)cc2)C1)c1ccncc1 [Example 67, (5R,7S)-5-[4-(Trifluoromethoxy)benzyl]-3-(2,6-dichloro-4-pyridyl)-7-(isonicotinoylamino)-1,3-diazabicyclo[3.3.0]octane-2,4-dione]
Second: O=C1CN2C(=O)N(c3cc(Cl)nc(Cl)c3)C(=O)[C@@]2(Cc2ccc(OC(F)(F)F)cc2)C1 [Example 70, (5R)-5-[4-(Trifluoromethoxy)benzyl]-3-(2,6-dichloro-4-pyridyl)-7-oxo-1,3-diazabicyclo[3.3.0]octane-2,4-dione]
The melting point of the first is lower: 148 °C for the first, 166 °C for the second.

First: CN1CCN(C(=O)CCC(=O)N[C@@H]2CN3C(=O)N(c4cc(Cl)nc(Cl)c4)C(=O)[C@@]3(Cc3ccc(OC(F)(F)F)cc3)C2)CC1 [Example 69, (5R,7S)-5-[4-(Trifluoromethoxy)benzyl]-3-(2,6-dichloro-4-pyridyl)-7-[3-(4-methyl-1-piperazinylcarbonyl)propanoylamino]-1,3-diazabicyclo[3.3.0]octane-2,4-dione]
Second: COC(=O)CCN1CCCC2(Cc3ccc(Br)cc3)C(=O)N(c3cc(Cl)nc(Cl)c3)C(=O)N12 (centres unmarked) [Example 103, 6-(4-Bromobenzyl)-8-(2,6-dichloro-4-pyridyl)-2-[2-(methoxycarbonyl)ethyl]-1,2,8-triazabicyclo[4.3.0]nonane-7,9-dione]
The melting point of the first is lower: 70 °C for the first, 157 °C for the second.

Going from CC(C)(C)OC(=O)c1ccc(C(=O)N[C@H]2CN3C(=O)N(c4cc(Cl)cc(Cl)c4)C(=O)[C@@]3(Cc3ccc(Br)cc3)C2)cc1 [Example 80, (5R, 7R)-5-(4-Bromobenzyl)-3-(3,5-dichlorophenyl)-7-(4-t-butoxycarbonylbenzoylamino)-1,3-diazabicyclo[3.3.0]octane-2,4-dione] to O=C1N(c2cc(Cl)cc(Cl)c2)C(=O)C2(Cc3ccc(Br)cc3)C[C@@H](c3ccccc3)CN12 (stereo partly drawn) [Example 83, (7S)-5-(4-Bromobenzyl)-3-(3,5-dichlorophenyl)-7-phenyl-1,3-diazabicyclo[3.3.0]octane-2,4-dione], the melting point rises from 112 °C to 123.5 °C.

Compared with CC(=O)N1CCCC2(Cc3ccc(Br)cc3)C(=O)N(c3cc(Cl)nc(Cl)c3)C(=O)N12 (centres unmarked) [Example 101, 6-(4-Bromobenzyl)-8-(2,6-dichloro-4-pyridyl)-2-acetyl-1,2,8-triazabicyclo[4.3.0]nonane-7,9-dione], COC(=O)N1CCCC2(Cc3ccc(Br)cc3)C(=O)N(c3cc(Cl)nc(Cl)c3)C(=O)N12 (centres unmarked) [Example 102, 6-(4-Bromobenzyl)-8-(2,6-dichloro-4-pyridyl)-2-methoxycarbonyl-1,2,8-triazabicyclo[4.3.0]nonane-7,9-dione] is lower in melting point: 91 °C for the first, 81 °C for the second.

Compared with N#Cc1ccc(CC23CCCN2C(=O)N(Cc2cc(Cl)cc(Cl)c2)C3=O)cc1 (centres unmarked) [Example 106, 5-(4-Cyanobenzyl)-3-(3,5-dichlorobenzyl)-1,3-diazabicyclo[3.3.0]octane-2,4-dione], N#Cc1ccc(CC23CCCN2C(=O)N(Cc2ccncc2)C3=O)cc1 (centres unmarked) [Example 108, 5-(4-Cyanobenzyl)-3-(4-pyridylmethyl)-1,3-diazabicyclo[3.3.0]octane-2,4-dione] is higher in melting point: 124 °C for the first, 154 °C for the second.

Going from N#Cc1ccc(CC23CCCN2C(=O)N(CCc2cccc(Cl)c2)C3=O)cc1 (centres unmarked) [Example 107, 5-(4-Cyanobenzyl)-3-[2-(3-chlorophenyl)ethyl]-1,3-diazabicyclo[3.3.0]octane-2,4-dione] to N#Cc1ccc(CC23CCCN2C(=O)N(c2cc(Cl)nc(Cl)c2)C3=O)cc1 (centres unmarked) [Example 130, 5-(4-Cyanobenzyl)-3-(2,6-dichloro-4-pyridyl)-1,3-diazabicyclo[3.3.0]octane-2,4-dione], the melting point falls from 148 °C to 96 °C.

Going from O=C(c1ccc(Cl)c(Cl)c1)N1C(=O)N2CCCC2(Cc2ccc(Br)cc2)C1=O (centres unmarked) [Example 109, 5-(4-Bromobenzyl)-3-(3,4-dichlorobenzoyl)-1,3-diazabicyclo[3.3.0]octane-2,4-dione] to COC(=O)c1ccc(CC23CCCN2C(=O)N(c2cc(Cl)c(O)c(Cl)c2)C3=O)cc1 (centres unmarked) [Example 142, 5-(4-Methoxycarbonylbenzyl)-3-(3,5-dichloro-4-hydroxyphenyl)-1,3-diazabicyclo[3.3.0]octane-2,4-dione], the melting point falls from 158 °C to 105.3 °C.

Going from N#Cc1ccc(C(=O)C23CCCN2C(=O)N(c2cc(Cl)cc(Cl)c2)C3=O)cc1 (centres unmarked) [Example 112, 5-(4-Cyanobenzoyl)-3-(3,5-dichlorophenyl)-1,3-diazabicyclo[3.3.0]octane-2,4-dione] to N#Cc1ccc(C(F)(F)C23CCCN2C(=O)N(c2cc(Cl)cc(Cl)c2)C3=O)cc1 (stereo not drawn) [Example 113, 5-(4-Cyano-α,α-difluorobenzyl)-3-(3,5-dichlorophenyl)-1,3-diazabicyclo[3.3.0]octane-2,4-dione], the melting point falls from 72.1 °C to 66 °C.

First: O=C1N(c2cc(Cl)cc(Cl)c2)C(=O)C2(Cc3ccc(-c4ccc([N+](=O)[O-])cc4)cc3)CCCN12 (centres unmarked) [Example 114, 5-[4-(4-Nitrophenyl)benzyl]-3-(3,5-dichlorophenyl)-1,3-diazabicyclo[3.3.0]octane-2,4-dione]
Second: CC(=O)Nc1ccc(-c2ccc(CC34CCCN3C(=O)N(c3cc(Cl)cc(Cl)c3)C4=O)cc2)cc1 (centres unmarked) [Example 116, 5-[4-(4-Acetylaminophenyl)benzyl]-3-(3,5-dichlorophenyl)-1,3-diazabicyclo[3.3.0]octane-2,4-dione]
The melting point of the first is lower: 72 to 73 °C for the first, 123.9 °C for the second.

Going from CC(=O)Nc1cccc(-c2ccc(CC34CCCN3C(=O)N(c3cc(Cl)cc(Cl)c3)C4=O)cc2)c1 (centres unmarked) [Example 119] to O=C(Nc1ccccc1)Nc1cccc(-c2ccc(CC34CCCN3C(=O)N(c3cc(Cl)cc(Cl)c3)C4=O)cc2)c1 (centres unmarked) [Example 126, 5-[4-[3-(Phenylureido)phenyl]benzyl]-3-(3,5-dichlorophenyl)-1,3-diazabicyclo[3.3.0]octane-2,4-dione], the melting point rises from 98 °C to 150.2 °C.

Compared with O=C1CCCN1c1cccc(-c2ccc(CC34CCCN3C(=O)N(c3cc(Cl)cc(Cl)c3)C4=O)cc2)c1 (centres unmarked) [Example 127, 5-[4-[3-(2-oxo-1-pyrrolidinyl)phenyl]benzyl]-3-(3,5-dichlorophenyl)-1,3-diazabicyclo[3.3.0]octane-2,4-dione], COC(=O)c1ccc(CC23CCCCN2C(=O)N(c2cc(Cl)cc(Cl)c2)C3=O)cc1 (centres unmarked) [Example 155, 6-(4-Methoxycarbonylbenzyl)-8-(3,5-dichlorophenyl)-1,8-diazabicyclo[4.3.0]nonane-7,9-dione] is lower in melting point: 86.5 °C for the first, 51 °C for the second.

Compared with N#Cc1ccc(CC23CCCN2C(=O)N(c2cc(Cl)c(N)c(Cl)c2)C3=O)cc1 (centres unmarked) [Example 132, 5-(4-Cyanobenzyl)-3-(3,5-dichloro-4-aminophenyl)-1,3-diazabicyclo[3.3.0]octane-2,4-dione], COc1c(Cl)cc(N2C(=O)N3CCCC3(Cc3ccc(C#N)cc3)C2=O)cc1Cl (centres unmarked) [Example 139, 5-(4-Cyanobenzyl)-3-(3,5-dichloro-4-methoxyphenyl)-1,3-diazabicyclo[3.3.0]octane-2,4-dione] is lower in melting point: 103 °C for the first, 95.1 °C for the second.

O=C1N(c2cc(Cl)c(OCc3ccccc3)c(Cl)c2)C(=O)C2(Cc3ccc(Br)cc3)CCCN12 (centres unmarked) [Example 138, 5-(4-Bromobenzyl)-3-[3,5-dichloro-4-(benzyloxy)phenyl]-1,3-diazabicyclo[3.3.0]octane-2,4-dione] showed a melting point of 62 °C.

For O=C1N(c2cc(Cl)nc(Cl)c2)C(=O)C2(Cc3ccc(Br)cc3)CCCNN12 (centres unmarked) [Example 100, 6-(4-Bromobenzyl)-8-(2,6-dichloro-4-pyridyl)-1,2,8-triazabicyclo[4.3.0] nonan-7,9-dione], the melting point was 190 °C (dec.).
With Nc1ccc(-c2ccc(CC34CCCN3C(=O)N(c3cc(Cl)cc(Cl)c3)C4=O)cc2)cc1 (centres unmarked) [Example 115, 5-[4-(4-Aminophenyl)benzyl]-3-(3,5-dichlorophenyl)-1,3-diazabicyclo[3.3.0]octane-2,4-dione] the melting point was 278 °C (dec.).
With O=C(O)c1ccc(CC23CCCCN2C(=O)N(c2cc(Cl)cc(Cl)c2)C3=O)cc1 (centres unmarked) [Example 156] the melting point was 256.2 °C (dec.).
For CNC(=O)c1ccc(CC23CCCCN2C(=O)N(c2cc(Cl)cc(Cl)c2)C3=O)cc1 (centres unmarked) [Example 157], the melting point was 78.7 °C (dec.).
